# Data: article PMC4761891, “CD36 is a co-receptor for hepatitis C virus E1 protein attachment” (Scientific Reports, 2016)
# Where two headings read alike, the source gives them in different places.
# Assays:
# HCV [1] = assay: Anti-HCV activity in HCV-infected Huh7.5 cells (intracellular HCV RNA, qRT-PCR); assay type: cell-based, hepatitis C virus; conditions: for EC50: Hepatitis C virus, read-out: half maximal effective concentration (EC50) against HCV at RNA level; for selective index (SI): Huh7.5 cells, cytotoxicity by MTT assay vs anti-HCV EC50, 72 hrs
# [2] = test system: Influenza virus A/Tianjin-Jinnan/15/2009; assay: microbe, parasite or virus in culture; conditions: unidentified influenza virus, MDCK
# [3] = Cytotoxicity in MDCK cells; assay type: cell-based; conditions: dog, Influenza virus A/Tianjin-Jinnan/15/2009 test
# MDCK cells = assay: Cytotoxicity in MDCK cells; assay type: cell-based; conditions: Influenza virus BV/Shenzhen/155/2005 test
# [4] = test system: Coxsackie B virus (CoxV-B1); assay: microbe, parasite or virus in culture; conditions: Vero
# HCV [5] = assay: Influence of CD36 level on the anti-HCV activity of SSO; assay type: cell-based, hepatitis C virus; conditions: 5 μM SSO for 2 hrs, HCV 150 IU/cell, RNA in 96 hrs, P < 0.01
# Procedure: Intracellular HCV RNA was analyzed with qRT-PCR in 96 hrs.
# HCV [6] = assay: Inhibition of HCV entry (treatment before, during or after infection); assay type: cell-based, hepatitis C virus; conditions: Huh7.5 cells
# Source text: Then, the cells were washed and cultured with fresh medium. Intracellular HCV RNA and proteins were detected in 72 hrs.
# hepatitis B virus (HBV) = assay: Activity against HBV in HepG2.2.15 cells; assay type: cell-based
# KM mice = assay: Safety of SSO in vivo (single oral dose, KM mice); conditions: single oral dose up to 1000 mg/kg, day 7
# Source text: KM mice at a weight of 21.0 ± 1.0 g were from Laboratory Animal Center, Academy of Military Medical Sciences, Beijing, China. The mice were randomly divided into four groups with 10 mice in each (♂ × 5, ♀ × 5). […] Body weight as well as survival was monitored. Seven days later, blood samples were taken for liver and kidney function examination.
# [7] = test system: Influenza virus BV/Shenzhen/155/2005; assay: microbe, parasite or virus in culture; conditions: unidentified influenza virus, MDCK
# [8] = test system: herpes simplex virus type 1 (HSV-1); assay: Activity against HSV-1 in Vero cells; assay type: cell-based; conditions: Human alphaherpesvirus 1; HSV-1, Vero
# [9] = Cytotoxicity in Vero cells; assay type: cell-based; conditions: African green monkey
# [10] = Cytotoxicity in HepG2.2.15 cells; assay type: cell-based; conditions: human, HBV test
# [11] = test system: hepatitis B virus, influenza virus, herpes simplex virus and Coxsackie virus; assay: Activity of CD36 inhibitors against other viruses; assay type: cell-based; conditions: HepG2.2.15, MDCK and Vero cell cultures
# HCV particle = assay: Interaction between HCV and compounds (direct inactivation of HCV particles); assay type: cell-based, hepatitis C virus; conditions: 1 hr room temperature, Huh7.5, 72 hrs; for HCV inhibitory activity, Group 1 (treated HCV stock, no ultracentrifugation): SSO 10 μM or VX-950 0.5 μM, P < 0.01
# [12] = test system: HCV subgenomic replicon I 377-3′del.S in GS4.3 cells; assay: HCV subgenomic replicon replication in GS4.3 cells; assay type: cell-based, hepatitis C virus; conditions: 72 hrs incubation, intracellular RNA; VX-950 at 1.0 μM
# Procedure: Huh7.5 cells infected with HCV (45 IU/cell), or GS4.3 replicon cells were treated with different concentration of compounds. After 72 hrs, intracellular RNA was extracted with RNeasy Mini Kit; total intracellular proteins were extracted with PER. HCV RNA and proteins were analyzed with qRT-PCR and WB, respectively. Compound cytotoxicity in Huh7.5 cells or GS4.3 replicon cells were evaluated at 72 hrs with the tetrazolium (MTT, Amresco) assay.
# SR-BI = target: T1, SR-BI (Homo sapiens, UniProt Q8WTV0); assay: BIAcore surface plasmon resonance binding to SR-BI-HA; conditions: immobilised SR-BI-HA
# T1 construct: made in house; host or cells: 293T/17 cells
# T1 sequence (Q8WTV0 1-509 isoform Q8WTV0-2): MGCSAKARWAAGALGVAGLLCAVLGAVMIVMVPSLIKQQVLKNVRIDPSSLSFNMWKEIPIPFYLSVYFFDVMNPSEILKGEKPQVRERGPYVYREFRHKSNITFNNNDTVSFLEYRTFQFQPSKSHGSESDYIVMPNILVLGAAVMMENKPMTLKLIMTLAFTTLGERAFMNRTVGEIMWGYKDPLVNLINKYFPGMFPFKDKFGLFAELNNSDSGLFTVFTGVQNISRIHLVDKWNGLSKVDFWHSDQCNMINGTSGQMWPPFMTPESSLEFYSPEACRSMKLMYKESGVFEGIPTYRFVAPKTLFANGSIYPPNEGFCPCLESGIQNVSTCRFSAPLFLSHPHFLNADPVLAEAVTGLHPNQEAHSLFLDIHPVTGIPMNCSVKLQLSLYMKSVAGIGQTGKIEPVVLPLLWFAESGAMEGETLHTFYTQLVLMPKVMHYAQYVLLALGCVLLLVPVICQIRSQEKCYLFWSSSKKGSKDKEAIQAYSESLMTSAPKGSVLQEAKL
# Procedure: The 293T/17 cells were transfected with CD36-HA or SR-BI-HA plasmid using HD transfection reagent. At 48 hrs post transfection, cells were harvested and protein CD36-HA or SR-BI-HA was purified with Pierce Anti-HA Agarose (Thermo Scientific) and then desalinated with Zeba Spin Desaling Columns (Thermo Scientific). The concentration of purified proteins was quantified with Pierce BCA Protein Assay Kit (Thermo Scientific). Then, surface plasmon resonance experiments were performed on a BIAcore biosensor system (BIAcore T100). In brief, the carboxymethylated surface of series S sensor chip CM5 (GE Healthcare Bio-Sciences) was first activated with a mixture of N-hydroxysuccinimide (NHS) and 1-ethyl-3-(3- dimethylaminopropyl) carbodiimide hydro-chloride (EDC) (BIAcore AB). Subsequently, 200 μL of purified CD36-HA or SR-BI-HA at a concentration of 80 μg/mL was injected into the flow cell (FC2) for immobilization on the sensor surface. […] Compound VX-950 was used as negative control. Data were evaluated using the software BIAcore T100 Evaluation (BIAcore AB).
# CD36 = target: T2, CD36 (Homo sapiens, UniProt P16671); assay: BIAcore surface plasmon resonance binding to CD36-HA; conditions: immobilised CD36-HA; SSO 50, 100, 200, 500 μM
# T2 construct: made in house; host or cells: 293T/17 cells
# T2 sequence (P16671 whole entry): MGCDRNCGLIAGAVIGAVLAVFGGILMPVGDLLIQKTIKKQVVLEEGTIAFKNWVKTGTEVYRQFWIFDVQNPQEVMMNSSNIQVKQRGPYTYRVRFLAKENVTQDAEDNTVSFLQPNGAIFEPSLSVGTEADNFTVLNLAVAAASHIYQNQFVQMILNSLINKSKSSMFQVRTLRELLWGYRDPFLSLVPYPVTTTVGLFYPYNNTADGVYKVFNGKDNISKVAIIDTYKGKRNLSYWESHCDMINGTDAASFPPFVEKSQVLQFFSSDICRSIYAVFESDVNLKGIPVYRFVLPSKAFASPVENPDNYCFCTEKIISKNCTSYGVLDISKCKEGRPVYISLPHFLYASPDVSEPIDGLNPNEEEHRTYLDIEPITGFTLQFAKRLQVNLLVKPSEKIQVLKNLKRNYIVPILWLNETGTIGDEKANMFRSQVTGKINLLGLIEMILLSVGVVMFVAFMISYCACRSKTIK
# HCV [13] = assay: Time-of-addition assay; assay type: cell-based, hepatitis C virus; conditions: 10 nM bafilomycin A1, Huh7.5, HCV 300 IU/cell
# Procedure: Huh7.5 cells were infected with HCV (300 IU/cell) and incubated at 4 °C for 2 hrs, the cells were then washed with cold PBS and shifted to 37 °C (set as 0 hr time point) to initiate synchronous infection. […] Intracellular HCV RNA was detected after 72 hrs incubation. Inhibitory ratio was calculated as % relative to infectious control (0%). Fitted lines represent sigmoidal time-dependent curves.
smiles,measurement,setting,value
COc1cc(O)c(/C=N/NC(=O)c2cc3ccccc3s2)c(OC)c1 [AP5055],EC50,"HCV [1]; Huh7.5 cells infected with HCV (45 IU/cell), 72 hrs, intracellular HCV RNA",0.39 ± 0.16 µM
same,selective index (SI),HCV [1],25
"CCCCCCCC/C=C\CCCCCCCC(=O)ON1C(=O)CC(S(=O)(=O)O)C1=O (centres unmarked) [SSO, sulfo-N-succinimidyl oleate]",EC50,[2],79 µM
same,CC50,[3],> 200 µM
same,CC50,MDCK cells,> 200 µM
same,EC50,[4],> 66.7 µM
same,anti-HCV activity of SSO in cells transfected with CD36 plasmid,HCV [5],decreased
same,anti-HCV activity of SSO in cells transfected with siRNA for CD36,HCV [5],increased
same,"HCV replication, treatment after infection","HCV [6]; 2 hrs treatment after infection, detected in 72 hrs, P > 0.05",no inhibitory effect
same,"HCV replication, treatment before and during HCV infection","HCV [6]; 2 hrs treatment, HCV RNA and proteins in 72 hrs, P < 0.01",strongly inhibit HCV replication
same,EC50,hepatitis B virus (HBV),> 100 µM
same,"liver and kidney function: blood GOT, GPT, BUN and CRE",KM mice,abnormality was not detected
same,EC50,[7],200 µM
same,EC50,[8],> 200 µM
same,CC50,[9]; CoxV-B1 test,111 µM
same,CC50,[9]; HSV-1 test,> 200 µM
same,CC50,[10],> 100 µM
same,"inhibitory activity on hepatitis B virus, influenza virus, herpes simplex virus and Coxsackie virus",[11],no inhibitory activity
same,"HCV inhibitory activity, Group 1 (treated HCV stock, no ultracentrifugation)",HCV particle,showed HCV inhibitory activity
same,"infectivity of treated virus, Group 2 (after ultracentrifugation)","HCV particle; SSO 10 μM, ultracentrifuged, P > 0.05",infectivity equal to that of untreated control
same,replication of the HCV replicon in GS4.3 cells,[12],did not inhibit the replication
same,EC50,"HCV [1]; Huh7.5, 72 h",0.31 ± 0.09 µM
same,anti-HCV efficacy in combination with IFN-α,"HCV [1]; SSO 1.0 μM + IFN-α 1.0 U/mL, HCV-infected Huh7.5 cells, 72 hrs, P < 0.05 vs IFN-α alone",enhanced anti-HCV efficacy
same,anti-HCV efficacy in combination with telaprevir (VX-950),"HCV [1]; SSO 1.0 μM + VX-950 0.1 μM, HCV-infected Huh7.5 cells, 72 hrs, P < 0.05 vs telaprevir alone",enhanced anti-HCV efficacy
same,direct binding to SR-BI (BIAcore),SR-BI,no binding on SR-BI
"CCC[C@H](NC(=O)[C@@H]1[C@H]2CCC[C@H]2CN1C(=O)[C@@H](NC(=O)[C@@H](NC(=O)c1cnccn1)C1CCCCC1)C(C)(C)C)C(=O)C(=O)NC1CC1 [VX-950, telaprevir]",direct binding to CD36 (BIAcore),CD36,did not bind onto CD36
same,"HCV inhibitory activity, Group 1 (treated HCV stock, no ultracentrifugation)",HCV particle,showed HCV inhibitory activity
same,replication of the HCV replicon in GS4.3 cells,[12],strong inhibitory effect
same,direct binding to SR-BI (BIAcore),SR-BI,no binding on SR-BI
COc1ccc2cc[n+](CCc3ccccc3)cc2c1O [W-9],EC50,"HCV [1]; Huh7.5, 72 h",6.61 ± 3.18 µM
same,selective index (SI),HCV [1],20
CO/C1=C\C(C)=C\[C@@H](C)[C@@H](O)[C@@H](C)C/C(C)=C/C=C/[C@H](OC)[C@@H]([C@@H](C)[C@@H](O)[C@H](C)[C@@]2(O)C[C@@H](O)[C@H](C)[C@@H](C(C)C)O2)OC1=O [bafilomycin A1],time HCV remained sensitive to the inhibitor after shift to 37 °C,HCV [13],3 h
